Counter-ions that a name gives are not always drawn.

The first assay concerns Acinetobacter baumannii ATCC17961. Put plainly: Antimicrobial susceptibility testing: 90% growth inhibitory concentration (IC90) determination in Iso-Sensitest broth, OD600 growth. In kind it is cell-based. The conditions noted are these: Acinetobacter baumannii, ATCC17961, 16 h, read-out: A. baumannii ATCC 17961 IC90 (uM), strain ATCC 17961, OD600 growth over 16 h. An outline of the steps:
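OD600 read every 20 min for 16 h at 35±2° C; inhibition taken in log phase to derive IC90. Twofold, 10-point dilutions (e.g. 50–0.097 μM final), inoculum ~5×10^(5) CFU/ml.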
As a reminder, the IC90 is the concentration needed for an effect of 90%. For `CCc1cc(Nc2nccn3c(-c4cn(CC(F)F)nc4C(F)(F)F)cnc23)ccc1C(=O)NCCNC(=O)CCCN` [Example 537, N-(2-(4-aminobutanamido)ethyl)-4-((3-(1-(2,2-difluoroethyl)-3-(trifluoromethyl)-1H-pyrazol-4-yl)imidazo[1,2-a]pyrazin-8-yl)amino)-2-ethylbenzamide formate], the IC90 worked out at 0.163 µM.
On to `C[C@@H](NC(=O)c1ccc(Nc2nccn3c(-c4c[nH]nc4C(F)(F)F)cnc23)cc1Cl)C(=O)N[C@@H]1CCNC1` [Example 93, 2-chloro-N-[(2R)-1-oxo-1-[[(3R)-pyrrolidin-3-yl]amino]propan-2-yl]-4-[[3-[3-(trifluoromethyl)-1H-pyrazol-4-yl]imidazo[1,2-a]pyrazin-8-yl]amino]benzamide formate], for which the IC90 is 1.02 µM.
With `CCc1cc(Nc2nccn3c(-c4cn(CC(F)F)nc4C(F)(F)F)cnc23)ccc1C(=O)NC1C2CNCC21` (stereo not drawn) [Example 562, N-(3-azabicyclo[3.1.0]hexan-6-yl)-4-((3-(1-(2,2-difluoroethyl)-3-(trifluoromethyl)-1H-pyrazol-4-yl)imidazo[1,2-a]pyrazin-8-yl)amino)-2-ethylbenzamide formate], the IC90 was 0.305 µM.
With `NC1CN(C(=O)N2CCN(C(=O)c3ccc(Nc4nccn5c(-c6c[nH]nc6C(F)(F)F)cnc45)cc3Cl)CC2)C1` [Example 266, [4-(3-aminoazetidine-1-carbonyl)piperazin-1-yl]-[2-chloro-4-[[3-[3-(trifluoromethyl)-1H-pyrazol-4-yl]imidazo[1,2-a]pyrazin-8-yl]amino]phenyl] methanone formate], the IC90 is 0.282 µM.
Still for that read-out and setting: as for `Cc1ccc(Cn2cc(-c3cnc4c(Nc5ccc(C(=O)N6CCNCC6)c(Cl)c5)nccn34)c(C(F)(F)F)n2)nn1` [Example 163, [2-chloro-4-[[3-[1-[(6-methylpyridazin-3-yl)methyl]-3-(trifluoromethyl)pyrazol-4-yl]imidazo[1,2-a]pyrazin-8-yl]amino]phenyl]-piperazin-1-ylmethanone formate], the figure is 1.27 µM.

The assay is the same for the next values; noted with them: Acinetobacter baumannii, ATCC17961, 16 h, strain ATCC 17961, OD600 growth over 16 h, read-out: A. baumannii ATCC 17961 IC90.
For the compound `O=C(c1ccc(Nc2nccn3c(-c4c[nH]nc4C(F)(F)F)cnc23)cc1Cl)N1CCN(C(=O)C2(O)CCCNC2)CC1` (stereo not drawn) [Example 352, [2-chloro-4-[[3-[3-(trifluoromethyl)-1H-pyrazol-4-yl]imidazo[1,2-a]pyrazin-8-yl]amino]phenyl]-[4-(3-hydroxypiperidine-3-carbonyl)piperazin-1-yl]methanone], the IC90 came to 0.229 µM.
On the same count and under the same terms, the value for `CCc1cc(Nc2nccn3c(-c4cn(C5CCC5)nc4C(F)(F)F)cnc23)ccc1C(=O)NCCOCCN1CCOCC1` [Example 661, 4-((3-(1-cyclobutyl-3-(trifluoromethyl)-1H-pyrazol-4-yl)imidazo[1,2-a]pyrazin-8-yl)amino)-2-ethyl-N-(2-(2-morpholinoethoxy)ethyl) benzamide formate] was 0.279 µM.
The same measure, in the same setting: the value for `N#CCn1cc(-c2cnc3c(Nc4ccc(C(=O)NCCNCC(=O)NCCCN)c(Cl)c4)nccn23)c(C(F)(F)F)n1` [Example 819, N-(2-((2-((3-aminopropyl)amino)-2-oxoethyl)amino)ethyl)-2-chloro-4-((3-(1-(cyanomethyl)-3-(trifluoromethyl)-1H-pyrazol-4-yl)imidazo[1,2-a]pyrazin-8-yl)amino) benzamide formate] was 0.18 µM; that for `CCc1cc(Nc2nccn3c(-c4cn(COC)nc4C(F)F)cnc23)ccc1C(=O)N1CCN(C(=O)C2CC(O)CN2)CC1` (stereo not drawn) [Example 798, (4-(4-((3-(3-(difluoromethyl)-1-(methoxymethyl)-1H-pyrazol-4-yl)imidazo[1,2-a]pyrazin-8-yl)amino)-2-ethylbenzoyl)piperazin-1-yl)(4-hydroxypyrrolidin-2-yl)methanone] was 2.36 µM; that for `CCc1cc(Nc2nccn3c(-c4cn(CC#N)nc4C(F)(F)F)cnc23)ccc1C(=O)NCC1CCN(CC2CNC2)CC1` [Example 828, N-((1-(azetidin-3-ylmethyl)piperidin-4-yl)methyl)-4-((3-(1-(cyanomethyl)-3-(trifluoromethyl)-1H-pyrazol-4-yl)imidazo[1,2-α]pyrazin-8-yl)amino)-2-ethylbenzamide 2,2,2-trifluoroacetate] was 0.35 µM.
The same measure, in the same setting: as for `N#CCn1cc(-c2cnc3c(Nc4ccc(C(=O)N5CC(NC(=O)C6CCNCC6)C5)c(Cl)c4)nccn23)c(C(F)(F)F)n1` [Example 170, N-[1-[2-chloro-4-[[3-[1-(cyanomethyl)-3-(trifluoromethyl)pyrazol-4-yl]imidazo[1,2-a]pyrazin-8-yl]amino]benzoyl]azetidin-3-yl]piperidine-4-carboxamide], the figure is 0.475 µM; as for `CCc1cc(Nc2nccn3c(-c4c[nH]nc4C(F)(F)F)cnc23)ccc1C(=O)NC` [Example 350, 2-ethyl-N-methyl-4-[[3-[3-(trifluoromethyl)-1H-pyrazol-4-yl]imidazo[1,2-a]pyrazin-8-yl]amino]benzamide], 0.371 µM; as for `C#CCn1cc(-c2cnc3c(Nc4ccc(C(=O)NCCOCCN)c(CC)c4)nccn23)c(C(F)(F)F)n1` [Example 174, N-[2-(2-aminoethoxy)ethyl]-2-ethyl-4-[[3-[1-prop-2-ynyl-3-(trifluoromethyl)pyrazol-4-yl]imidazo[1,2-a]pyrazin-8-yl]amino]benzamide], 0.081 µM.
As to `O=C(c1ccc(Nc2nccn3c(-c4cn(CC(F)F)nc4C(F)(F)F)cnc23)cc1Cl)N1CCNCC1` [Example 120, [2-chloro-4-[[3-[1-(2,2-difluoroethyl)-3-(trifluoromethyl)pyrazol-4-yl]imidazo[1,2-a]pyrazin-8-yl]amino]phenyl]-piperazin-1-ylmethanone], the IC90 was 0.109 µM.
Still for that read-out and setting: as for `N#CCn1cc(-c2cnc3c(Nc4ccc(C(=O)N5CC[C@@H](O)C5)c(Cl)c4)nccn23)c(C(F)(F)F)n1` [Example 244, 2-[4-[8-[3-chloro-4-[(3R)-3-hydroxypyrrolidine-1-carbonyl]anilino]imidazo[1,2-a]pyrazin-3-yl]-3-(trifluoromethyl)pyrazol-1-yl]acetonitrile], the figure is 0.411 µM; as for `CCc1cc(Nc2nccn3c(-c4cn(CC(F)F)nc4C(F)(F)F)cnc23)ccc1C(=O)NCCCN` [Example 52, N-(3-aminopropyl)-4-[[3-[1-(2,2-difluoroethyl)-3-(trifluoromethyl)pyrazol-4-yl]imidazo[1,2-a]pyrazin-8-yl]amino]-2-ethylbenzamide], 0.144 µM.
Same read-out and setting: as for `CCc1cc(Nc2nccn3c(-c4cn(CC(F)F)nc4C(F)(F)F)cnc23)ccc1C(=O)NCCNC(=O)N1CC[C@H](N)C1` [Example 489, (S)-3-amino-N-(2-(4-((3-(1-(2,2-difluoroethyl)-3-(trifluoromethyl)-1H-pyrazol-4-yl)imidazo[1,2-a]pyrazin-8-yl)amino)-2-ethylbenzamido)ethyl)pyrrolidine-1-carboxamide formate], the figure is 0.184 µM; as for `CCc1cc(Nc2nccn3c(-c4c[nH]nc4C(F)(F)F)cnc23)ccc1C(=O)NCCNC(=O)[C@H]1C[C@H](N)C1` [Example 567, N-(2-((1r,3r)-3-aminocyclobutane-1-carboxamido)ethyl)-2-ethyl-4-((3-(3-(trifluoromethyl)-1H-pyrazol-4-yl)imidazo[1,2-a]pyrazin-8-yl)amino) benzamide formate], 0.476 µM; as for `CCc1cc(Nc2nccn3c(-c4cn(CCF)nc4C(F)F)cnc23)ccc1C(=O)N1CCN(C(=O)[C@@H]2C[C@@H](O)CN2)CC1` [Example 795, (4-(4-((3-(3-(difluoromethyl)-1-(2-fluoroethyl)-1H-pyrazol-4-yl)imidazo[1,2-a]pyrazin-8-yl)amino)-2-ethylbenzoyl)piperazin-1-yl)((2S,4R)-4-hydroxypyrrolidin-2-yl)methanone], 2.23 µM.
Regarding `NC1CC(NC(=O)CNC(=O)c2ccc(Nc3nccn4c(-c5c[nH]nc5C(F)(F)F)cnc34)cc2Cl)C1` (stereo not drawn) [Example 138, N-[2-[(3-aminocyclobutyl)amino]-2-oxoethyl]-2-chloro-4-[[3-[3-(trifluoromethyl)-1H-pyrazol-4-yl]imidazo[1,2-a]pyrazin-8-yl]amino]benzamide], the IC90 amounted to 2.01 µM.
On the same count and under the same terms, as for `O=C(c1ccc(Nc2nccn3c(-c4c[nH]nc4C(F)(F)F)cnc23)cc1Cl)N1CCNCC1` [Example 431, [2-chloro-4-[[3-[3-(trifluoromethyl)-1H-pyrazol-4-yl]imidazo[1,2-a]pyrazin-8-yl]amino]phenyl]-piperazin-1-ylmethanone], the figure is 0.449 µM.
As to `Cc1cc(Nc2nccn3c(-c4cn(CC#N)nc4C(F)(F)F)cnc23)ccc1C(=O)NCC(=O)N1CCC(N)CC1` [Example 503, N-[2-(4-amino-1-piperidyl)-2-oxo-ethyl]-4-[[3-[1-(cyanomethyl)-3-(trifluoromethyl)pyrazol-4-yl]imidazo[1,2-a]pyrazin-8-yl]amino]-2-methyl-benzamide formate], the IC90 worked out at 0.233 µM.

Staying with this assay, now noted: read-out: A. baumannii ATCC 17961 IC90, strain ATCC 17961, OD600 growth over 16 h, formate.
In the case of `NC1CC(C(=O)N2CCN(C(=O)c3ccc(Nc4nccn5c(-c6c[nH]nc6C(F)(F)F)cnc45)cc3Cl)CC2)C1` (stereo not drawn) [Example 330, [4-(3-aminocyclobutanecarbonyl)piperazin-1-yl]-[2-chloro-4-[[3-[3-(trifluoromethyl)-1H-pyrazol-4-yl]imidazo[1,2-a]pyrazin-8-yl]amino]phenyl]methanone formate], the IC90 turned out to be 0.275 µM.

Still in this assay, the particulars now being: strain ATCC 17961, OD600 growth over 16 h, read-out: A. baumannii ATCC 17961 IC90.
For the compound `N#CCn1cc(-c2cnc3c(Nc4ccc(C(=O)N5CCN(C(=O)N6CCC(N)CC6)CC5)c(Cl)c4)nccn23)c(C(F)(F)F)n1` [Example 178, 2-[4-[8-4-[4-(4-aminopiperidine-1-carbonyl)piperazine-1-carbonyl]-3-chloroanilino]imidazo[1,2-a]pyrazin-3-yl]-3-(trifluoromethyl) pyrazol-1-yl]acetonitrile formate], the 90% effect concentration (IC90) turned out to be 0.161 µM.

The values above are taken from patent US20230203043A1, “NOVEL IMIDAZOPYRAZINE DERIVATIVES” (Hoffmann-La Roche Inc., priority 2020, published 2023).
